From US11629169B2, “Use of peptides as therapeutic agent for autoimmune diseases and bone diseases” (KINE SCIENCES CO., LTD., priority 2017, dated 2023)

Columns and labels:
[1] = test system: naive CD4+ T cells extracted from lymph nodes of the mouse; assay: Th17 cell differentiation inhibition (CD4+IL-17+ T cell population); type: cell-based; details: IL-6 20 ng/ml and TGF-beta 5 ng/ml with TCR activation; peptide 10 ng/ml to 1000 ng/ml; 3 days; induced group 3.14%, non-induced 1.2%
Experimental: In order to confirm the efficacy of the synthetic peptides prepared in Example 1 to inhibit Th17 cell differentiation, naive CD4^+ T cells extracted from lymph nodes of the mouse were treated with IL-6 20 ng/ml and TGF-beta 5 ng/ml together with TCR activation to induce differentiation into Th17 cells.
At the same time, three peptides Pep2, Pep3, and Pep4 disclosed in Table 2 of Test Example 1 were treated at a concentration of 10 ng/ml to 1000 ng/ml, respectively. Then, after incubation for 3 days, CD4+IL-17+ T cell population was analyzed.

[2] = test system: collagen-induced arthritis (CIA) mouse model; assay: Rheumatoid arthritis treatment effect in collagen-induced arthritis (CIA) mouse model; type: in vivo, DBA/1J mouse; details: CIA mice, intraperitoneally 3 times a week after second immunization; similar efficacy compared to positive control MTX
Experimental: In order to confirm a rheumatoid arthritis improvement effect of the peptides prepared in Example 1, a rheumatoid arthritis mouse model was prepared with reference to a known literature (Nat Protoc. 2007; 2 (5):
Specifically, a CIA mouse model is a mouse model most commonly used in a rheumatoid arthritis animal test as an autoimmune disease arthritis model having characteristics similar to human rheumatoid arthritis. In the CIA mouse model, bovine type II collagen (Chondrex, USA) was mixed and emulsified with a Freund's complete adjuvant (Chondrex, USA) at 1:1, and then first immunization was performed by injecting 50 μl of the emulsified collagen solution intradermally into a 6-week-old DBA/1J mouse tail. On 2 weeks after the first immunization, bovine type II collagen was mixed and emulsified with a Freund's incomplete adjuvant (Chondrex, USA) at 1:1, and then second immunization (boosting) was performed by injecting 50 μl of the emulsified collagen solution induced) intradermally into the mouse tail. After the second immunization, each peptide was intraperitoneally administered 3 times a week from the following day to observe a therapeutic effect of the peptides for rheumatoid arthritis.
In order to examine the progression of rheumatoid arthritis according to the peptide treatment of the present invention, the severity of rheumatoid arthritis over time was evaluated and measured by a rheumatoid arthritis progress index.
At this time, the arthritis progress index was evaluated as Points 0 to 4 per leg in accordance with the arthritis progress evaluation criteria by Rossoliniec, etc. in Table 2 below and shown to total Points 0 to 16 (sum of four legs). Thereafter, an average value of the results evaluated by the two observers was calculated to quantify the severity of arthritis.

Row | Substance | ratio of Th17 cells (CD4+IL-17+ T cell population) [1] | arthritis improvement (arthritis progress index, total Points 0 to 16) [2]
1 | SSPSSP (Pep2) | reduced similarly to the group that did not induce differentiation | efficacy of arthritis improvement was shown
2 | PTSPTS (Pep4) | reduced similarly to the group that did not induce differentiation | efficacy of arthritis improvement was shown
3 | STSSTS (Pep6) | – | efficacy of arthritis improvement was shown
4 | PSSPSS (Pep1) | – | efficacy of arthritis improvement was shown
5 | PTPPTP (Pep3) | reduced similarly to the group that did not induce differentiation | –
